Results on 24 compounds are retold here after patent US8673938B2, “Chemical compounds” (priority 2006, dated 2014).

In general, inhibition refers to the relative decrease from the control value, in per cent.

In this experiment the target is human 11βHSD1 enzyme (Homo sapiens (Human), UniProt P28845). Kind of experiment: biochemical. The note with it: read-out: % inhibition of human 11-βHSD.
Chain of human 11βHSD1 enzyme (P28845 whole entry): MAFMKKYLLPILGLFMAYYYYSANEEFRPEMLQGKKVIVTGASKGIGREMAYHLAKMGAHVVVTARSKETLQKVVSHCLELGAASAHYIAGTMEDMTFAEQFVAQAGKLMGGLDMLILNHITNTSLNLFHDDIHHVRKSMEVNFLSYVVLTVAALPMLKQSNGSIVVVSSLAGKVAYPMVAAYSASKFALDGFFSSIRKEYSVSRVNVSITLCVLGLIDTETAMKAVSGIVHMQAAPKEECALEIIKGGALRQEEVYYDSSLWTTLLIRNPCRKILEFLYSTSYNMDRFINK
Turning to `CCCSc1nc(N2CCC[C@@H](CC(=O)O)C2)ccc1C(=O)NC1C2CC3CC(C2)CC1C3` (stereo partly drawn) [Example 59, 2-[(3S)-1-[5-(2-adamantylcarbamoyl)-6-propylsulfanyl-pyridin-2-yl]-3-piperidyl]acetic acid], the inhibition at 30 µM was 94%.

Take `CCCSc1nc(N2CC[C@@H](CC(=O)O)C2)ccc1C(=O)NC1C2CC3CC(C2)CC1C3` (stereo partly drawn) [Example 62, 2-[(3S)-1-[5-(2-adamantylcarbamoyl)-6-propylsulfanyl-pyridin-2-yl]pyrrolidin-3-yl]acetic acid]: the inhibition at 30 µM amounted to 89%.

Regarding `CCCSc1nc(N2CC[C@@H](C(=O)O)C2)ccc1C(=O)NC1C2CC3CC(C2)CC1C3` (stereo partly drawn) [Example 63, (3R)-1-[5-(2-adamantylcarbamoyl)-6-propylsulfanyl-pyridin-2-yl]pyrrolidine-3-carboxylic acid], the inhibition at 30 µM was 91%.

Consider `CCCSc1nc(N2CC[C@H](CC(=O)O)C2)ccc1C(=O)NC1C2CC3CC(C2)CC1C3` (stereo partly drawn) [Example 64, 2-[(3R)-1-[5-(2-adamantylcarbamoyl)-6-propylsulfanyl-pyridin-2-yl]pyrrolidin-3-yl]acetic acid], for which the inhibition at 30 µM turned out to be 89%.

For `CCCSc1nc(N2CCC[C@H]2C(=O)O)ccc1C(=O)NC1C2CC3CC(C2)CC1C3` (stereo partly drawn) [Example 65, (2S)-1-[5-(2-adamantylcarbamoyl)-6-propylsulfanyl-pyridin-2-yl]pyrrolidine-2-carboxylic acid], the inhibition at 30 µM was determined as 89%.

As for `CCCSc1nc(N2C[C@@H]3[C@H](C2)[C@H]3C(=O)O)ccc1C(=O)NC1C2CC3CC(C2)CC1C3` (stereo partly drawn) [Example 66, (1S,5R)-3-[5-(2-adamantylcarbamoyl)-6-propylsulfanylpyridin-2-yl]-3-azabicyclo[3.1.0]hexane-6-carboxylic acid], the inhibition at 30 µM was 89%.

Turning to `CCCSc1nc(N2CC[C@H](C(=O)O)C2)ccc1C(=O)NC1C2CC3CC(C2)CC1C3` (stereo partly drawn) [Example 67, (3S)-1-[5-(2-adamantylcarbamoyl)-6-propylsulfanyl-pyridin-2-yl]pyrrolidine-3-carboxylic acid], the inhibition at 30 µM came out at 88%.

Take `O=C(O)CO[C@H]1CCN(c2ccc(C(=O)NC3C4CC5CC(C4)CC3C5)c(SC3CCCC3)n2)C1` (stereo partly drawn) [Example 69, 2-[(3S)-1-[5-(2-adamantylcarbamoyl)-6-cyclopentylsulfanyl-pyridin-2-yl]pyrrolidin-3-yl]oxyacetic acid]: the inhibition at 30 µM amounted to 91%.

For the compound `O=C(O)CO[C@@H]1CCN(c2ccc(C(=O)NC3C4CC5CC(C4)CC3C5)c(SC3CCCC3)n2)C1` (stereo partly drawn) [Example 70, 2-[(3R)-1-[5-(2-adamantylcarbamoyl)-6-cyclopentylsulfanyl-pyridin-2-yl]pyrrolidin-3-yl]oxyacetic acid], the inhibition at 30 µM worked out at 95%.

Consider `O=C(O)CO[C@H]1CCN(c2ccc(C(=O)NC3C4CC5CC(C4)CC3C5)c(SC3CCCCC3)n2)C1` (stereo partly drawn) [Example 71, 2-[(3S)-l-[5-(2-adamantylcarbamoyl)-6-cyclohexylsulfanyl-pyridin-2-yl]pyrrolidin-3-yl]oxyacetic acid], for which the inhibition at 30 µM was 92%.

With `O=C(O)CO[C@@H]1CCN(c2ccc(C(=O)NC3C4CC5CC(C4)CC3C5)c(SC3CCCCC3)n2)C1` (stereo partly drawn) [Example 72, 2-[(3R)-1-[5-(2-adamantylcarbamoyl)-6-cyclohexylsulfanyl-pyridin-2-yl]pyrrolidin-3-yl]oxyacetic acid], the inhibition at 30 µM came out at 84%.

For `CCSc1nc(N2CC[C@H](CC(=O)O)C2)ccc1C(=O)NC1C2CC3CC(C2)CC1C3` (stereo partly drawn) [Example 73, 2-[(3R)-1-[5-(2-adamantylcarbamoyl)-6-ethylsulfanyl-pyridin-2-yl]pyrrolidin-3-yl]acetic acid], the inhibition at 30 µM came to 92%.

On to `CSc1nc(N2CC[C@H](CC(=O)O)C2)ccc1C(=O)NC1C2CC3CC(C2)CC1C3` (stereo partly drawn) [Example 76, 2-[(3R)-1-[5-(2-adamantylcarbamoyl)-6-methylsulfanyl-pyridin-2-yl]pyrrolidin-3-yl]acetic acid], for which the inhibition at 30 µM is 87%.

For the compound `CSc1nc(N2CC[C@@H](C(=O)O)C2)ccc1C(=O)NC1C2CC3CC(C2)CC1C3` (stereo partly drawn) [Example 77, (3R)-1-[5-(2-adamantylcarbamoyl)-6-methylsulfanyl-pyridin-2-yl]pyrrolidine-3-carboxylic acid], the inhibition at 30 µM came to 99%.

As to `CCCSc1nc(N2CC[C@@H](CC(=O)O)C2)ccc1C(=O)NC1C2CC3CC1CC(O)(C3)C2` (stereo partly drawn) [Example 79, 2-[(3S)-1-[5-[((2r,5s)-5-hydroxy-2-adamantyl)carbamoyl]-6-propylsulfanyl-pyridin-2-yl]pyrrolidin-3-yl]acetic acid], the inhibition at 30 µM came to 90%.

Take `CCCSc1nc(NCC2CCC(C(=O)O)CC2)ccc1C(=O)N[C@H]1C2CC3CC1C[C@](O)(C3)C2` (stereo partly drawn) [Example 80, 4-[[[5-[((2r,5s)-5-hydroxy-2-adamantyl)carbamoyl]-6-propylsulfanyl-pyridin-2-yl]amino]methyl]cyclohexane-1-carboxylic acid]: the inhibition at 30 µM was 94%.

Consider `CCCSc1nc(N2CCC[C@@H](CC(=O)O)C2)ccc1C(=O)N[C@H]1C2CC3CC1C[C@@](O)(C3)C2` [Example 83], for which the inhibition at 30 µM came out at 87%.

Turning to `CCCSc1nc(N2CCC(C(=O)O)CC2)ccc1C(=O)N[C@H]1C2CC3CC1C[C@@](O)(C3)C2` [Example 84, 1-[5-[[(2r,5s)-5-hydroxy-2-adamantyl]carbamoyl]-6-propylsulfanyl-pyridin-2-yl]piperidine-4-carboxylic acid], the inhibition at 30 µM was 101%.

For `CCCSc1nc(N2CCC[C@H](CC(=O)O)C2)ccc1C(=O)N[C@H]1C2CC3CC1C[C@@](O)(C3)C2` [Example 85, 2-[(3R)-1-[5-[[(2r,5s)-5-hydroxy-2-adamantyl]carbamoyl)-6-propylsulfanyl-pyridin-2-yl]-3-piperidyl]acetic acid], the inhibition at 30 µM was determined as 89%.

In the case of `CCCSc1nc(N2CCC(CC(=O)O)CC2)ccc1C(=O)N[C@H]1C2CC3CC1C[C@@](O)(C3)C2` [Example 86, 2-[1-[5-[[(2r,5s)-5-hydroxy-2-adamantyl]carbamoyl]-6-propylsulfanyl-pyridin-2-yl]-4-piperidyl]acetic acid], the inhibition at 30 µM is 90%.

As to `CCCSc1nc(N2CCC(C)(C(=O)O)CC2)ccc1C(=O)N[C@H]1C2CC3CC1C[C@@](O)(C3)C2` [Example 88, 1-[5-[[(2r,5s)-5-hydroxy-2-adamantyl]carbamoyl]-6-propylsulfanyl-pyridin-2-yl]-4-methyl-piperidine-4-carboxylic acid], the inhibition at 30 µM turned out to be 89%.

With `CCCSc1nc(N2CCC(C(=O)O)C2)ccc1C(=O)N[C@H]1C2CC3CC1C[C@@](O)(C3)C2` (stereo partly drawn) [Example 89, 1-[5-[[(2r,5s)-5-hydroxy-2-adamantyl]carbamoyl]-6-propylsulfanyl-pyridin-2-yl]pyrrolidine-3-carboxylic acid], the inhibition at 30 µM turned out to be 85%.

As to `CCCSc1nc(N2CC[C@H](CC(=O)O)C2)ccc1C(=O)N[C@H]1C2CC3CC1C[C@@](O)(C3)C2` [Example 90, 2-[(3R)-1-[5-[[(2r,5s)-5-hydroxy-2-adamantyl]carbamoyl]-6-propylsulfanyl-pyridin-2-yl]pyrrolidin-3-yl]acetic acid], the inhibition at 30 µM came to 88%.

In the case of `CCCSc1nc(N2CCCC(C(C)(C)C(=O)O)C2)ccc1C(=O)N[C@H]1C2CC3CC1C[C@](O)(C3)C2` (stereo partly drawn) [Example 92, 2-[1-[5-[((2r,5s)-5-hydroxy-2-adamantyl)carbamoyl]-6-propylsulfanyl-pyridin-2-yl]-3-piperidyl]-2-methyl-propanoic acid], the inhibition at 30 µM came to 89%.
